Read-outs that look alike come from different tables or passages of the source.
Assay type: in vivo, human
Conditions: for Urine concentration (median): 50 subjects; for μA, population mean of ln(PMET/SMET), ratio of primary (parent) to secondary metabolite concentration in urine: large batch of historical UDT patient data (for quetiapine: model A), the σA is the standard deviation
Source text: Determining the amount of a drug in fluid of the subject may be accomplished by use of any method known to those skilled in the art. Non-limiting examples for determining the amount of a drug in fluid of a subject include fluorescence polarization immunoassay (“FPIA,” Abbott Diagnostics), mass spectrometry (MS), gas chromatography-mass spectrometry (GC-MS-MS), liquid chromatography-mass spectrometry (LC-MS-MS), and the like. In one embodiment, LC-MS-MS methods known to those skilled in the art are used to determine a raw level, amount or concentration of a drug in urine of the subject. In one embodiment, a raw level or concentration of a drug in urine of a subject is measured and reported as a ratio, percent, or in relationship to the amount of fluid. The amount of fluid may be expressed as a unit volume, for example, in L, mL, μL, pL, ounce, etc. In one embodiment, the raw amount of a drug in urine of a subject may be expressed as an absolute level or value, for example, in g, mg, μg, ng, pg, etc.
In an embodiment, the raw primary metabolite and secondary metabolite concentrations measured in urine of the subject are transformed and normalized (hereafter “Equation 3”): […]
where ln is the natural log, PMET is the concentration of the primary metabolite also referred to as the parent drug in […]; and SMET is the concentration of the secondary metabolite in […]. The value is then transformed into its corresponding value on the standard normal (e.g., Gaussian) distribution using (hereafter “Equation 4): […]
where NORMSTD(RATIO) is the standardized normal value (also referred to herein as the Z-score) and μA and σA are the mean and the standard deviation respectively of the population used to construct the model described in Equation 3. The resulting mean and standard deviation of the standardized normal distribution, NORMSTD(RATIO), are “0” and “1” respectively.
The Data Sets used to establish the ratio models were cleaned as detailed below and the resulting information used only considered patients who tested positive for the primary and secondary metabolite of interest and were prescribed the drug of interest. Furthermore, to ensure integrity of the data only patients with qualifying sample validity test information (sample pH and sample creatinine level), as described in detail in other embodiments were included in the model. […] Consequently, all patients were included in the model regardless of whether their illicit drug test was positive or negative.
Once the patient(s) meet acceptable Sample Validity test results and non-zero values, expected values based on the model can be calculated using the models described below (Equation 3 and Equation 4 detailed in other embodiments).

[1] = patient validity data set for Quetiapine models, average quetiapine dosage 299 mg
[2] = Oxycodone model population, approximately 48,800 patient results over one year, average daily dosage 36 mg
[3] = patient validity data set for Oxycodone model, average oxycodone dosage 24 mg
[4] = patient validity data set for Alprazolam model, average alprazolam dosage 2.26 mg

Question: With `OCCOCCN1CCN(C2=Nc3ccccc3Sc3ccccc32)CC1` [quetiapine] as the compound, how does the “Urine concentration (median)” value [1] read?
Answer: 69 ng/mL

Question: Which “median urine drug concentration” value [2] does the source give for `COc1ccc2c3c1O[C@H]1C(=O)CC[C@@]4(O)[C@@H](C2)N(C)CC[C@]314` [oxycodone] here?
Answer: 1421 ng/mL

Question: What about the “μA, population mean of ln(PMET/SMET), ratio of primary (parent) to secondary metabolite concentration in urine” value of the same compound?
Answer: −0.083

Question: And the “Urine concentration (median)” value [3]?
Answer: 1509 ng/mL

Question: With `Cc1nnc2n1-c1ccc(Cl)cc1C(c1ccccc1)=NC2` [alprazolam] as the compound, how does the “μA, population mean of ln(PMET/SMET), ratio of primary (parent) to secondary metabolite concentration in urine” value read?
Answer: −0.463

Question: And the “Urine concentration (median)” value [4]?
Answer: 118 ng/mL

Question: Which results are given for `OCCOCCN1CCN(C2=Nc3ccc(O)cc3Sc3ccccc32)CC1` [7-hydroxyquetiapine]?
Answer: median urine drug concentration (Alprazolam model population, approximately 256,000 patient results over nine years, average daily dosage 3 mg): 329 ng/mL; median urine drug concentration (Quetiapine model A population, approximately 5,455 patient results collected over three years, average daily dosage 229 mg): 95 ng/mL; median urine drug concentration (Quetiapine model B population, approximately 236 patient results, six month clinical trial, average daily dosage 310 mg): 55 ng/mL; Urine concentration (median) [1]: 62 ng/mL

Question: Which “median urine drug concentration” value [2] does the source give for `CN1CC[C@]23c4c5ccc(O)c4O[C@H]2C(=O)CC[C@@]3(O)[C@H]1C5` [oxymorphone] here?
Answer: 1248 ng/mL

Question: And the “Urine concentration (median)” value [3]?
Answer: 1579 ng/mL

Question: With `OCc1nnc2n1-c1ccc(Cl)cc1C(c1ccccc1)=NC2` [alpha-hydroxyalprazolam] as the compound, how does the “Urine concentration (median)” value [4] read?
Answer: 265 ng/mL

Question: Which “median urine drug concentration” value (Hydrocodone model population, approximately 84,000 patient results over one year, average daily dosage 32 mg) does the source give for `COc1ccc2c3c1O[C@H]1C(=O)CC[C@H]4[C@@H](C2)N(C)CC[C@]314` [hydrocodone] here?
Answer: 1395 ng/mL

Question: And the “μA, population mean of ln(PMET/SMET), ratio of primary (parent) to secondary metabolite concentration in urine” value?
Answer: 0.996

Question: What about the “Urine concentration (median)” value (patient validity data set for Hydrocodone model, average hydrocodone dosage 26 mg) of the same compound?
Answer: 1428 ng/mL
